Measurements: patent publication US5614550A, “Amide and urea derivatives having anti-hypercholesteremic activity, their preparation and their therapeutic uses” (Sankyo Company, Limited, priority 1993, dated 1997)

target: T1, ACAT in M.phi. (acyl-CoA: cholesterol acyl transferase) (Mus musculus, UniProt Q61263); assay: Inhibition of ACAT in mouse macrophages (M.phi.), cholesterol [14C]oleate formation; type: cell-based; parameters: dose or concentration left out as unconfirmed; settings: mouse peritoneal macrophages, beta-VLDL, 37° C., 3 hours
T1 construct: endogenous in cells; host or cells: primary adherent peritoneal macrophages from unstimulated female DDY mice
T1 sequence (Q61263 1-540): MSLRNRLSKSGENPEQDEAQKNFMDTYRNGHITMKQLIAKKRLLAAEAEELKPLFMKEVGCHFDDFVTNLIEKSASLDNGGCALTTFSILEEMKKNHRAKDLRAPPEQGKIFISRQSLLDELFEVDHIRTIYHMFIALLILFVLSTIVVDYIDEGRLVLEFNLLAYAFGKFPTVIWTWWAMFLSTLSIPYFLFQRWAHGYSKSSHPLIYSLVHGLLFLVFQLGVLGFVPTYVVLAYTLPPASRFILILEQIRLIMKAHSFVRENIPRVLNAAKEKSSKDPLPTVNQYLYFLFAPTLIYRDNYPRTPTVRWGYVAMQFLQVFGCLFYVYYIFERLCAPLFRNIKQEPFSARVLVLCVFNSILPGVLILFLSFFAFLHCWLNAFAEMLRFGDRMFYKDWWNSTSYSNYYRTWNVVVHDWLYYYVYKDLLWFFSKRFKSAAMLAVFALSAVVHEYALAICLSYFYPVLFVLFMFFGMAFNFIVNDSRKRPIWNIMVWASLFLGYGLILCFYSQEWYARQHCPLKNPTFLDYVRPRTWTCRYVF
Description: Blood was obtained [using the anticoagulant ethylene diamine tetraacetic acid (5 mM)] from Japanese White rabbits which had been fed a 2% w/w cholesterol diet for 2 weeks and then fasted overnight prior to removing the blood. β-VLDL (d<1.006 g/ml) was isolated by ultracentrifugation from the plasma according to the method of Hatch and Lees [Hatch, F. T. and Lees, R. S., Adv. Lipid Res., 6, 1-68 (1968)] and dialyzed against 10 mM of a sodium phosphate buffer (pH 7.4) containing 150 mM sodium chloride at 4° C.
Peritoneal cells were harvested from unstimulated female DDY mice (body weight 20-30 g) in phosphate buffer saline (PBS) as described by Edelson and Cohn [Edelson, P. J. and Cohn, Z. A., 1976, IN VITRO Methods in Cell-Mediated and Tumor Immunity, eds, Bloon, B. R. and DAvid, J. R., (Academic, New York), 333-340.]. The fluid from the mice was pooled and the cells were collected by centrifugation at 400× g, for 10 minutes at 4° C., and washed once with PBS. The cells were resuspended in Dulbecco's modified Eagle's medium (DMEM) containing 10% (vol/vol) fetal calf serum (FCS), penicillin (100 units/ml), and streptomycin (100 μg/ml) at a final concentration of 3×10^6 cells per ml. Aliquots (1 ml) of this cell suspension were dispersed onto plastic Petri dishes (35×10 mm) and then incubated in a CO2 incubator (5% CO2 /95% air) at 37° C. for 2 hours. Each dish was washed twice with PBS without serum to remove nonadherent cells. The cells were washed twice with 2 ml of PBS and used for the experiment.
Inhibition of ACAT in M.phi. was determined according to the method described by Brown et al. [Brown, M. S., Goldstein J. L., Krieger, M., Ho, Y. K. and Anderson, R. G. W. (1979) J. Cell Biol., 82, 597-613.]. Cholesterol reacylation was initiated by adding β-VLDL (final concentration 50 μg/ml cholesterol), [^14 C]oleate-albumin complex (final concentrations: 0.2 mM oleate and 0.6 mg/ml albumin) and a test compound dissolved in ethanol into the M.phi. monolayer, and the preparation was incubated at 37° C. for 3 hours in a CO2 incubator. Cells were washed three times with PBS and cellular lipid was extracted with 1 ml hexane/isopropanol (3:2, vol/vol). A lipid extract was evaporated in a stream of nitrogen. Cholesterol [^14 C]oleated was seperated by thin layer chromatography through silica gel using a 85:15:1 by volume mixture of hexane, diethyl ether and acetic acid as developing solvents. The ACAT activity in M.phi. was determined by measuring the radioactivity and an inhibition rate (%) was calculated by comparing a control activity with those of the test compound at given concentrations.

SMILES	inhibition [%]
CC(C)(C)c1ccc(CCC(O)CCCCC2CCCCC2)cc1NC(=O)CC1c2ccccc2Oc2ccccc21 (centres unmarked) [Example 44, N-[2-t-Butyl-5-(7-cyclohexyl-3-hydroxyheptyl)phenyl]-2-(9H-xanthen-9-yl)acetamide]	89
CC(C)c1cccc(CCC(O)CCCC2CCCCC2)c1NC(=O)CC1c2ccccc2Oc2ccccc21 (centres unmarked) [Example 125, N-[2-Isopropyl-6-(6-cyclohexyl-3-hydroxyhexyl)phenyl]-2-(9H-xanthen-9-yl)acetamide]	85
CC(C)(C)c1ccc(CCC(O)CCOC2CCCCC2)cc1NC(=O)CC1c2ccccc2Oc2ccccc21 (centres unmarked) [Example 217, N-[2-t-Butyl-5-(5-cyclohexyloxy-3-hydroxypentyl)phenyl]-2-(9H-xanthen-9-yl)acetamide]	74
CC(C)c1cccc(C(C)C)c1NC(=O)CC1c2ccccc2Oc2ccccc21 [Compound A, reference compound]	51
CC(C)(C)c1ccc(CCC(=O)CC2CCCCC2)cc1NC(=O)CC1c2ccccc2Oc2ccccc21 [Example 13, N-[2-t-Butyl-5-(4-cyclohexyl-3-oxobutyl)phenyl]-2-(9H-xanthen-9-yl)acetamide]	80
CC(C)(C)c1ccc(CCC(O)COCCC2CCCCC2)cc1NC(=O)CC1c2ccccc2Oc2ccccc21 (centres unmarked) [Example 219, N-{2-t-Butyl-5-[4-(2-cyclohexylethoxy)-3-hydroxybutyl]phenyl}-2-(9H-xanthen-9-yl)acetamide]	86
CC(C)(C)c1ccc(CCC(O)CCC2CCCCC2)cc1NC(=O)CC1c2ccccc2Oc2ccccc21 (centres unmarked) [Example 26, N-[2-t-Butyl-5-(5-cyclohexyl-3-hydroxypentyl)phenyl]-2-(9H-xanthen-9-yl)acetamide]	77
CC(C)(C)c1ccc(CCC(O)C2CCCCCC2)cc1NC(=O)CC1c2ccccc2Oc2ccccc21 (centres unmarked) [Example 98, N-[2-t-Butyl-5-(3-cycloheptyl-3-hydroxypropyl)phenyl]-2-(9H-xanthen-9-yl)acetamide]	81
